Results from PubChem BioAssay (NCI).
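Interpolation was linear, between the two tested concentrations surrounding the appropriate level; five concentrations were tested over 48 hours in 96-well plates. GI50 marks 50% less growth. TGI denotes the concentration required for complete inhibition of growth.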

Key:
Test in all cases: NCI tumour cell line growth inhibition, 48 h
HL-60(TB) leukemia = test system: HL-60(TB) leukemia
SK-MEL-5 melanoma = test system: SK-MEL-5 melanoma
RPMI-8226 leukemia = test system: RPMI-8226 leukemia
SK-OV-3 ovarian = test system: SK-OV-3 ovarian
UACC-62 melanoma = test system: UACC-62 melanoma
SF-295 CNS = test system: SF-295 CNS
HCT-116 colon = test system: HCT-116 colon
CCRF-CEM leukemia = test system: CCRF-CEM leukemia
SNB-75 CNS = test system: SNB-75 CNS
SR leukemia = test system: SR leukemia

Compound | TGI (HL-60(TB) leukemia) | TGI (SK-MEL-5 melanoma) | TGI (RPMI-8226 leukemia) | TGI (SK-OV-3 ovarian) | TGI (UACC-62 melanoma) | TGI (SF-295 CNS) | TGI (HCT-116 colon) | TGI (CCRF-CEM leukemia) | TGI (SNB-75 CNS) | TGI (SR leukemia) | GI50 (HL-60(TB) leukemia) | GI50 (SR leukemia) | GI50 (SK-MEL-5 melanoma) | GI50 (SK-OV-3 ovarian) | GI50 (UACC-62 melanoma) | GI50 (SF-295 CNS) | GI50 (HCT-116 colon) | GI50 (CCRF-CEM leukemia) | GI50 (SNB-75 CNS) | GI50 (RPMI-8226 leukemia)
CC(C)(O)[C@H]1[C@@H]2OC(=O)[C@H]1[C@]1(O)C[C@H]3OC34C(=O)O[C@H]2[C@@]41C (stereo not given in full) (tested in a mixture with another compound) | > 100 µM | > 100 µM | > 100 µM | > 100 µM | > 100 µM | > 100 µM | > 100 µM | > 100 µM | > 100 µM | – | – | – | – | – | – | – | – | – | – | –
O=C(/C=C/c1ccccc1)CCC1C(=O)NC(=O)NC1=O | > 100 µM | > 100 µM | > 100 µM | > 100 µM | > 100 µM | > 100 µM | > 100 µM | – | > 100 µM | – | – | – | – | – | – | – | – | – | – | –
Cc1c(CCl)c(=O)oc2c(C)c3occ(CCl)c(=O)c3cc12 | 20.2 µM | > 100 µM | 26.8 µM | > 100 µM | 30.3 µM | > 100 µM | – | 14.2 µM | 44.8 µM | – | – | – | – | – | – | – | – | – | – | –
CNC(=O)CN(CC(N)=O)C(=O)NC | > 100 µM | > 100 µM | > 100 µM | > 100 µM | > 100 µM | > 100 µM | – | > 100 µM | > 100 µM | > 100 µM | – | – | – | – | – | – | – | – | – | –
CC(=O)Nc1ccc(/C=C/C(=O)c2sc(C(N)=S)nc2C)cc1 | > 100 µM | > 100 µM | > 100 µM | > 100 µM | > 100 µM | > 100 µM | – | > 100 µM | > 100 µM | – | – | – | – | – | – | – | – | – | – | –
O=S1c2ccc(Cl)cc2CC(SSC2Cc3cc(Cl)ccc3S(=O)c3ccccc32)c2ccccc21 (stereo not given) | > 100 µM | > 100 µM | > 100 µM | > 100 µM | > 100 µM | > 100 µM | > 100 µM | > 100 µM | > 100 µM | – | – | – | – | – | – | – | – | – | – | –
Cc1ccc(S(=O)(=O)N/N=C(\C(=O)Nc2cccc([N+](=O)[O-])c2)c2nc3ccc([N+](=O)[O-])cc3[nH]c2=O)cc1 | – | > 100 µM | > 100 µM | > 100 µM | > 100 µM | > 100 µM | > 100 µM | > 100 µM | – | > 100 µM | – | – | – | – | – | – | – | – | – | –
O=C(NCC#CCO)C(F)(F)F | – | > 100 µM | – | > 100 µM | > 100 µM | – | > 100 µM | – | – | > 100 µM | – | – | – | – | – | – | – | – | – | –
O=C1/C(=C/c2ccccc2)CCCC/C1=C\c1ccccc1 | – | 70.4 µM | – | > 100 µM | > 100 µM | > 100 µM | > 100 µM | – | > 100 µM | > 100 µM | – | – | – | – | – | – | – | – | – | –
COc1cc(-c2nc3ccccc3s2)ccc1OCc1nc2n(n1)S(=O)(=O)c1ccccc1N2C | > 100 µM | > 100 µM | – | > 100 µM | > 100 µM | > 100 µM | > 100 µM | > 100 µM | > 100 µM | > 100 µM | > 100 µM | > 100 µM | > 100 µM | > 100 µM | > 100 µM | > 100 µM | > 100 µM | > 100 µM | 99.6 µM | –
COC(=O)C1=CC2OC13CC1CCC3(C2=O)C1(C)C (stereo not given) | 23.1 µM | 30.7 µM | 38.6 µM | 38.1 µM | 30.6 µM | 40.5 µM | 23.5 µM | 14.6 µM | 19.9 µM | – | – | – | – | – | – | – | – | – | – | –
Nc1ccc(C(=O)NN2C(=O)C(Cl)C2c2ccccc2O)cc1 (stereo not given) | 48 µM | > 100 µM | > 100 µM | > 100 µM | > 100 µM | > 100 µM | > 100 µM | > 100 µM | > 100 µM | – | – | – | – | – | – | – | – | – | – | –
Cn1c2cccc3nnc4cccc(c4c32)n1C | > 100 µM | > 100 µM | > 100 µM | – | > 100 µM | > 100 µM | > 100 µM | > 100 µM | – | – | – | – | – | – | – | – | – | – | – | –
Cc1ccc2[nH]c(=O)c(C(C#N)c3ccccc3)nc2c1 (stereo not given) | – | 57.8 µM | > 100 µM | > 100 µM | 75.1 µM | > 100 µM | > 100 µM | > 100 µM | > 100 µM | > 100 µM | – | – | – | – | – | – | – | – | – | –
COC1CC2CCC(C)[C@](O)(O2)C(=O)C(=O)N2CCCCC2C(=O)OC(C(C)CC2CCC(O)C(OC)C2)CC(=O)C(C)C=C(C)C(OC(=O)CN(C)C)C(OC)C(=O)C(C)CC(C)/C=C/C=C/C=C\1C (stereo not given in full) | 6.38 µM | 19.8 µM | – | 20 µM | 20.2 µM | 20.7 µM | 22.2 µM | 5.42 µM | – | – | – | – | – | – | – | – | – | – | – | –
Cc1ccc(C2=NO[C@@H]3C(=O)N(c4ccc(Cc5ccc(N6C(=O)[C@H]7C(c8ccc(C)cc8)=NO[C@H]7C6=O)cc5)cc4)C(=O)[C@H]23)cc1 | > 100 µM | > 100 µM | > 100 µM | > 100 µM | > 100 µM | > 100 µM | – | > 100 µM | > 100 µM | – | – | – | – | – | – | – | – | – | – | –
COc1cc(-c2c(C)c(C)nc(OC)c2C#N)cc(OC)c1OC | > 100 µM | > 100 µM | > 100 µM | > 100 µM | > 100 µM | > 100 µM | > 100 µM | > 100 µM | > 100 µM | – | – | – | – | – | – | – | – | – | – | –
CCN(CC)CCOc1cc2c(C(=O)OC)c(C)oc2cc1C(C)=O | – | 19 µM | 7.39 µM | 30.2 µM | 21.5 µM | 29.1 µM | – | 7.59 µM | – | 6.72 µM | – | 2.58 µM | 6.62 µM | 14.7 µM | 9.4 µM | 14.8 µM | – | 2.92 µM | – | 2.76 µM
Cc1cc(C)n(-c2c(O)ccc(O)c2-n2nc(C)cc2C)n1 | > 100 µM | > 100 µM | > 100 µM | > 100 µM | > 100 µM | > 100 µM | – | > 100 µM | > 100 µM | – | – | – | – | – | – | – | – | – | – | –
CCC[CH2][Sn]([CH2]CCC)([S]C1=NCCS1)[S]C1=NCCS1 | 0.881 µM | 1.76 µM | 0.461 µM | 3.31 µM | 0.814 µM | 2.02 µM | 1.91 µM | 0.226 µM | 1.39 µM | – | 0.298 µM | – | 0.452 µM | 1.9 µM | 0.177 µM | 0.73 µM | 0.615 µM | 0.0231 µM | 0.0857 µM | 0.101 µM
C[C@]12CCC(=O)C=C1CC[C@@H]1[C@@H]2CC[C@]2(C)C(=O)/C(=C/c3cccc(OCCN4CCOCC4)c3)C[C@@H]12 | 5.82 µM | 15.7 µM | – | > 100 µM | 27.5 µM | 16.6 µM | 13.4 µM | 28.6 µM | 31.9 µM | 22 µM | 2.13 µM | 4.72 µM | 4.17 µM | 11.7 µM | 11 µM | 3.74 µM | 3.14 µM | 4.49 µM | 12 µM | –
